Measurements reported in PubChem BioAssay AID2791 (The Scripps Research Institute Molecular Screening Center, 2010).
Calls of active or inactive are those of the source.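 Rule for the calls: active = blockers of MCL1 binding to BIM peptide with IC50 at or below 10 micromolar; inactive = IC50 above 10 micromolar.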

Target: Induced myeloid leukemia cell differentiation protein Mcl-1 (Homo sapiens) (UniProt Q07820)
Experiment: MCL1 binding to BIM-BH3 peptide, inhibitors, dose response, biochemical, fluorescence polarization, GST-MCL1, FITC-BIM-BH3, powder samples (AID 2791)

Chain of Induced myeloid leukemia cell differentiation protein Mcl-1 (Homo sapiens) (Q07820 whole entry, looked up): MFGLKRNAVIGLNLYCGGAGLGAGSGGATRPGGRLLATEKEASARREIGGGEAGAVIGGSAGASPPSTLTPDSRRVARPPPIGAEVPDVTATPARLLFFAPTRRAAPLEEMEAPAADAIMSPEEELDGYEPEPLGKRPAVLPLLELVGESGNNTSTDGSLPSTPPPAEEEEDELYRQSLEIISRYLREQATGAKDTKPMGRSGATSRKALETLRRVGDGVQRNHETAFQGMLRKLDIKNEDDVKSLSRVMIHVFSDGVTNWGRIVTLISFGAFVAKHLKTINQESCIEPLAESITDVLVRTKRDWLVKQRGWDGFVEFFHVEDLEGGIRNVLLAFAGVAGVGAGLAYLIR

| SMILES | IC50 |
| --- | --- |
| COc1ccc(-n2cccc2/C=C2\C(=N)N3N=C(c4ccco4)SC3=NC2=O)cc1 | 1.45 µM |
| C=CCn1c(SCC(=O)c2ccc(O)c(O)c2)nnc1-c1cccnc1 | 4.09 µM |
| Nc1ccc(C(=O)NN=Cc2cc(N=Nc3cccc4ccccc34)ccc2O)cc1 | 5.84 µM |
| O=C(NN=Cc1ccc(-c2ccc(S(=O)(=O)Nc3ncccn3)cc2)o1)c1cc2ccccc2cc1O | > 109 µM (inactive) |
| O=C(NN=Cc1cccc(F)c1)c1cc(-c2ccco2)nc2ccccc12 | 6.88 µM |
| Cc1cccc(NC(=O)CNC(=O)c2cccc(-n3cccc3)c2)c1C | inactive |
| C=CCN=c1scc(-c2ccco2)n1/N=C/c1ccc(O)c(O)c1O | 0.844 µM |

Further lines, results first:

| IC50 | SMILES |
| --- | --- |
| > 109 µM (inactive) | CCOc1ccc(NC(=O)c2cccc(-n3cccc3)c2)cc1S(=O)(=O)N1CCOCC1 |
| 7.34 µM | COc1ccc(Cc2nnc(NC(=O)Cc3cccs3)s2)cc1OC |
| 5.01 µM | COC(=O)c1ccccc1NCc1cc(=O)oc2cc(O)c(O)cc12 |
| inactive | COc1ccc(NC(=O)CN(C)C(=O)c2cc3c(s2)CCC3)cc1 |
| > 109 µM (inactive) | O=C1COc2ccc(C(=O)COC(=O)/C=C/c3ccc(Br)o3)cc2N1 |
| inactive | CCc1sc(C(C2C(=O)CC(C)(C)CC2=O)C2C(=O)CC(C)(C)CC2=O)cc1[N+](=O)[O-] |
